Values quoted from earlier work in patent US11672863B2, “Enhanced solubility drug-containing formulations” (United Therapeutics Corporation, priority 2017, dated 2023).
Counter-ions that a name gives are not always drawn.

Conditions: in water between pH 1.8 and 6

- solubility: 40 to 50 mg/mL
SMILES: CCCCN1CCCCC1C(=O)Nc1c(C)cccc1C (stereo not shown) [bupivacaine hydrochloride monohydrate]
